# “Also recorded” adds a separate entry of the source.
# Experiments:
# ERβ pY36 = target: T1, ERβ pY36 (Homo sapiens, UniProt Q92731); assay: pY36-specific phosphorylation signal of ERβ in MDA-MB-231 cells; format: cell-based; conditions: MDA-MB-231 cells (FIG. 16A)
# T1 construct: host or cells: MDA-MB-231 (human TNBC cell line)
# Text: FIG. 16. […] See, Yuan et al. (2016) listed below, which is incorporated by reference herein for all purposes.
# rat hippocampal neurons = conditions: cited from earlier work
# ERβ = target: T2, ERβ (Mus musculus, UniProt O08537); assay: TCR activated ERβ tyrosine phosphorylation after anti-CD3/CD28 stimulation (IP-Western blot); format: cell-based; conditions: anti-CD3/CD28-stimulated cells, pretreated with S-equol for 4 hrs (FIG. 26A)
# T2 construct: endogenous in cells; b180 instead says mouse 'EF4' (probably EL4) lymphoma cells
# T2 sequence (O08537 whole entry): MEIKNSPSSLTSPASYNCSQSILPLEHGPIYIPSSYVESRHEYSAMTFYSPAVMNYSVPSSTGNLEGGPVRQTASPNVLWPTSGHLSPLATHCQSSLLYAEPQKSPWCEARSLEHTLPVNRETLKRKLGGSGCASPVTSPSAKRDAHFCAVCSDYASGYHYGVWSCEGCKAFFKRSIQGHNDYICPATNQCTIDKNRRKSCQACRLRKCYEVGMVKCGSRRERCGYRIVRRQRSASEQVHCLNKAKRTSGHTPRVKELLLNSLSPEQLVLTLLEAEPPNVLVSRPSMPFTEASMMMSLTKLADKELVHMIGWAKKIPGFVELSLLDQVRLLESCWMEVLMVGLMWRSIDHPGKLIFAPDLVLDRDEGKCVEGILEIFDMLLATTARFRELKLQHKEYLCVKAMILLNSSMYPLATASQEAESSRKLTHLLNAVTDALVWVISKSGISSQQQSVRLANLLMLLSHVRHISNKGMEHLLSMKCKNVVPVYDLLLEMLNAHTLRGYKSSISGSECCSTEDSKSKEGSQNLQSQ
# Text: FIG. 26. ERβ agonist S-equol promotes CD8+ T cell activation and antitumor immunotherapy. […] FIGS. 26B and 26C show B16 melanoma growth and tumor weight from wild type C57BL/6J male mice with four arm treatments. Vehicle+α-IgG, 5-equol+α-IgG, Vehicle+α-PD-1, S-equol+α-PD-1. […] Vehicle+α-IgG, S-equol+α-IgG, Vehicle+α-PD-1, S-equol+α-PD-1. GSEA analysis in ERβ-high versus ERβ-low human melanoma TILs (tumor infiltrating lymphocytes). The enrichment of (FIG. 26F) NFAT pathway and (FIG. 26G) TNFα signaling were evaluated.
# Cells were stained and sorted as previously described (Clark, 2016), using LSR II and FACSAria hardware and analyzed by FACSDiva (BD Bioscience) and FlowJo software (FlowJo, LLC). CD8+ T cell isolation and in vitro activationCD8+ T cells were isolated from the spleens under aseptic conditions. Individual spleens were homogenized to release splenocytes. […] Single-cell suspensions from individual spleens were pooled, filtered through 70 μm and 40 μm cell strainer (Fisher) and counted. […]
# Isolated mouse spleen and bone marrow were lysed in RIPA Lysis and 218 Extraction Buffer. Protein amounts were determined by using Pierce BCA Protein Assay Kits (Pierce, Cat: #23225). […] Proteins were detected with ECL SuperSignal™ West Pico PLUS Chemiluminescent Substrate (Thermo Fisher, Cat. #34580).
# B16 = B16 tumors in mice with subcutaneous S-equol (Example 6, present tense); format: in vivo, mouse; conditions: B16 cells, daily s.c. S-equol 20 or 60 mg/kg per day vs PBS
# Method: Further work in a preclinical animal model supports the notion of using S-equol to treat melanoma. In immunocompromised mouse experiments, using B16, a murine tumor cell line know to be useful to study human melanoma metastasis and solid tumor formation, growth of tumors is suppressed with S-equol treatment compared to control. 0.5×10^6 B16 cells are injected into normal BL mice. When the tumor masses reach 50 to 80 mm^3 (about one week after the inoculation), the mice are given daily subcutaneous injections of S-equol (20 or 60 mg/kg per day) or PBS as a vehicle control. Tumor development is followed by caliper measurements along two orthogonal axes: length (L) and width (W) and volume (V) is estimated by the formula V=[L×(W^2)]/2. Tumors harvested from mice are fixed in 10% neutral-buffered formalin, dehydrated, embedded in paraffin, and sectioned at 3 μm thickness. Representative tumor sections from vehicle control and S-equol-treated mice are tested for Ki-67 expression to assess cell proliferation, and for ERβ pY36. Statistical significance in the experiments is assessed by two-tailed Student's t test. In all assays, p<0.05 is considered statistically significant.
# TNBC = assay: Neoadjuvant window trial of S-equol in TNBC patients (Example 15); format: in vivo, human; set-up: Cyclin D1 staining, median decrease: unit not given here
# Method: FIG. 35. Clinical trial with TNBC patients. A neoadjuvant window trial was performed on 39 enrolled patients with TNBC confirmed on diagnostic core needle biopsy. Cohort A (20 patients) received a daily dose of 50 mg BID and Cohort B (19 patients) received a higher dose of 150 mg BID for 10-21 days.
# S-equol is a novel oral Estrogen Receptor (ER) Beta agonist with preclinical data showing suppression of TNBC cellular proliferation. A neoadjuvant window trial was performed on 39 enrolled patients with TNBC confirmed on diagnostic core needle biopsy. Cohort A (20 patients) received a daily dose of 50 mg BID and Cohort B (19 patients) received a higher dose of 150 mg BID for 10-21 days. (FIG. 35.) Paired biopsies were evaluable for 36 patients. Primary outcome was a change from pre- to post-treatment Ki-67 and secondary outcomes were included as correlative biomarkers. […] The average decrease in Ki-67 was 8% (P=0.00206, 95% CI−13.46 to −3.26).
# T1 sequence (Q92731 whole entry): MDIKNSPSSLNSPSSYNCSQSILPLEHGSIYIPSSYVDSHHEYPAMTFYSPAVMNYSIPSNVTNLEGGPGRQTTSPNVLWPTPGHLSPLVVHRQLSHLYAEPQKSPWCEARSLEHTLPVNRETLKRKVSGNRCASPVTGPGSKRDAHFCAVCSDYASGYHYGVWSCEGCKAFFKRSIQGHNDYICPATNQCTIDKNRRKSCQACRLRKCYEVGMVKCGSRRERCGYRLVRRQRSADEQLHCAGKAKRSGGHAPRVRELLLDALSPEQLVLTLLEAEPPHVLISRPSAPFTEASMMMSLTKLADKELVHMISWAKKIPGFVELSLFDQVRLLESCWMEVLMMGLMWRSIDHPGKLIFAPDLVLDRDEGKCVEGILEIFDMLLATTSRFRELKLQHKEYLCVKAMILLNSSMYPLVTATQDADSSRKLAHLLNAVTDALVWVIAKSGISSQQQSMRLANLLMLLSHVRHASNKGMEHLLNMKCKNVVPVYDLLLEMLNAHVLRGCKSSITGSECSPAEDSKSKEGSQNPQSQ
compound,measurement,setting,value
Oc1ccc([C@H]2COc3cc(O)ccc3C2)cc1 [S-equol],pY36-specific phosphorylation signal,ERβ pY36,enhanced
same,respiratory and maximal glycolysis fluxes,rat hippocampal neurons,increase
same,TCR activated ERβ tyrosine phosphorylation,ERβ,further enhanced
same,growth of tumors compared to control,B16,suppressed
same,mean posttreatment Ki-67,"TNBC; 36 evaluable patients, S-equol 50 mg BID or 150 mg BID for 10-21 days, mean pre-treatment Ki-67 68%",59%
same,tolerability,"TNBC; oral, patients with TNBC",well tolerated
same,proliferation as measured by Ki-67 (in words),TNBC; patients with TNBC,inhibition of proliferation
same,change in CD3 or CD8 staining,TNBC; pre- and post-treatment paired tumor samples,no significant change; also recorded: did not significantly change
same,average decrease in Ki-67,"TNBC; pre- to post-treatment, P=0.00206, 95% CI −13.46 to −3.26",8%
same,patients with a Ki-67 decrease of at least 20% from baseline,TNBC; share of the patients,28%
same,"Cyclin D1 staining, median decrease","TNBC; with S-equol exposure, range −27.5-0.0",12.5
same,ER-beta expression by IHC (in words),TNBC; with exposure to S-equol,decreased
same,cyclin D1 staining by IHC (in words),TNBC; with exposure to S-equol,decreased
same,"ER Beta IHC expression, median decrease","TNBC; with exposure to S-equol, range −65.00 to −19.50",45%

# — patent US12070444B2, “Modulation of molecular markers using S-equol” (Board of Regents, The University of Texas System, priority 2020, dated 2024)
